Data from US11400136B2, “Methods and compositions for treating a microbial infection” (priority 2017, dated 2022).
Entries after “also recorded” stand apart in the source; their conditions may differ. Read-outs that look alike come from different tables or passages of the source.

Tests used:
S. pyogenes M1 [1] = assay type: cell-based, Streptococcus pyogenes; conditions: 1 h
S. pyogenes M1 [2] = assay type: cell-based, mouse
S. pyogenes M1 [3] = assay type: in vivo, mouse
S. pyogenes M1 [4] = assay type: in vivo, mouse; remark: listed apart in the source
Klebsiella pneumoniae = experiment: K. pneumoniae lung infection; assay type: in vivo, mouse; conditions: RTX vs vehicle
[5] = system: Pseudomonas aeruginosa strain PA01V; experiment: P. aeruginosa lung infection; assay type: in vivo, mouse; conditions: RTX vs vehicle
[6] = system: TRPV1-positive nociceptors; experiment: Ablation of TRPV1+ nociceptors, quantification of DRG/vagal ganglia neurons; conditions: mouse, in vivo
[7] = system: Streptococcus pneumoniae strain WU-2; experiment: S. pneumoniae lung infection; assay type: in vivo, mouse; conditions: RTX vs vehicle; P=0.13
[8] = assay type: in vivo, mouse; conditions: RTX-treated vs vehicle; steady state
Protocol: Vital sign measurements. Heart rate, oxygen saturation and perfusion were measured under isoflurane anesthesia by Pulse Oximetry using the Kent Scientific PhysioSuite (Kent Scientific Corporation). For accuracy, measurements were performed three independent times on different days for the same mice, and values represent the average of three measurements. Pulse Oximetry could not be used on MRSA infected mice because they could not survive isoflurane anesthesia, and thus the measurements were only performed at steady state. Respiratory rates were determined by manually recording number of breaths per minute and averaged over three measurements. Core body temperature was measured using a rectal thermal probe (Bioseb).

[9] = Heat sensitivity (hot plate and tail-flick assays); assay type: in vivo, mouse; conditions: RTX vs vehicle
Protocol: Behavior tests. For behavioral assays, observers were blinded to treatment group and genotype. To measure heat sensitivity, mice were placed on a hot plate set at 52° C. (IITC Life Science). Latency to hindpaw lifting/licking/flinching was recorded, and stopped at a maximum of 60 seconds. For tail-flick assay, mice were kept vertically in a relaxed fashion with their tail immersed in a temperature-controlled water bath maintained at 52° C. The latency to a tail flick was recorded, with maximum of 60 seconds.

skin punch biopsies = experiment: CGRP release assay from skin explants; assay type: in vivo, mouse; conditions: RTX-treated vs vehicle; 7 h
Protocol: CGRP release assay from skin explants. Skin punch biopsies (12 mm) were collected from the uninfected or infected flank skin samples of euthanized mice, and rapidly transferred to 24-well plates containing 1 mL of DMEM. Explants were incubated at 32° C. with gentle shaking (150 rpm) for 30 min.

S. aureus USA300 = experiment: S. aureus (MRSA) lung infection / lethal pneumonia; assay type: in vivo, mouse
neutrophils = experiment: Pulmonary intravital microscopy of neutrophils; assay type: in vivo, mouse; conditions: RTX
Protocol: Pulmonary intravital microscopy. […]. To visualize neutrophils and endothelium, 3.5 μg Alexa Fluor 594 conjugated anti-Ly6G antibody (clone 1A8, BioLegend) and 5 μg Alexa Fluor 647 conjugated anti-CD31 antibody (clone MEC13.3, BioLegend) were injected intravenously. Mice were placed on a heating pad maintained at 37° C. and connected to mechanical ventilation (Harvard Apparatus) after a tracheostomy is performed. Mice were kept in a right lateral decubitus position and their left lung was exposed after a thoracotomy and rib resection. A portion of the lung was immobilized via a gentle vacuum chamber with a glass slide fitted on top. A resonant-scanner confocal microscope (Leica SP8) equipped with a white light laser and three HyD spectral detectors and a 25×/0.9 water objective lens were used for intravital microscopy. Images were acquired every 10 s for a total of 10 min, three to five fields of view were observed. All videos and images were processed and analyzed using Leica software and Volocity software. For neutrophil behavior analysis, tethering was defined as rapid movement with blood flow and stop for less than 30 s. Adhesion was defined as neutrophils that remained stationary for 30 s or longer. Crawling was defined as polarized cells that maintained continuous contact with the endothelium while changing physical location for at least 30 s. Random neutrophils were tracked manually in 10-min videos by using Volocity software.

NCCCC[C@H](NC(=O)[C@@H](Cc1cc(Br)c(O)c(Br)c1)NC(=O)N1CCC(N2Cc3ccccc3NC2=O)CC1)C(=O)N1CCN(c2ccncc2)CC1 [BIBN4096]
direct effects on S. pyogenes growth or viability (S. pyogenes M1 [1]): did not have direct effects
neutrophil killing of S. pyogenes suppressed by DRG neurons (S. pyogenes M1 [2]): enhances neutrophil killing of bacteria; also recorded: prevented the suppressive effects
abscess formation (S. pyogenes M1 [3]; mouse, in vivo, 30 mg/kg): significantly decreases abscess formation; also recorded: reduced abscesses
dermonecrotic lesion size (S. pyogenes M1 [3]; mouse, in vivo, ip, 30 mg/kg): significantly smaller lesion formation; also recorded: smaller dermonecrotic lesions
neutrophil (CD11b+Ly6G+) recruitment to infected area (S. pyogenes M1 [3]; treated 2 h after infection, 1 day after injection): increased the recruitment of neutrophils
bacterial load recovery, flank skin and spleen (S. pyogenes M1 [3]; treated 2 h after infection, 9 days after injection of bacteria): decreases flank skin and spleen bacterial burdens; also recorded: increased bacterial clearance in the skin

CC(C)Cc1ccc(C(C)C(=O)O)cc1 (centres unmarked) [Ibuprofen]
heat hyperalgesia (S. pyogenes M1 [4]; ibuprofen 50 mg/kg): had no effect
mechanical hyperalgesia (S. pyogenes M1 [4]; ibuprofen 50 mg/kg): had no effect

C=C(C)[C@]12C[C@@H](C)[C@@]34O[C@](Cc5ccccc5)(O[C@@H]1[C@@H]3C=C(COC(=O)Cc1ccc(O)c(OC)c1)C[C@]1(O)C(=O)C(C)=C[C@@H]41)O2 [RTX, Resiniferatoxin]
survival (Klebsiella pneumoniae): did not impact death
survival [5]: did not impact death
TRPV1+ and CGRP+ neurons in DRG (and vagal/nodose ganglia) [6]: significant loss of CGRP+ nociceptive neurons; also recorded: led to loss of TRPV1+ and CGRP+ neurons; also recorded: loss of TRPV1+ and CGRP+ neurons in DRG and VG
survival [7]: modest but non-significant protective effect
oxygen saturation, heart rate, perfusion, respiratory rates [8]: did not differ
latency to noxious heat [9]: increased latency to noxious heat
dermonecrosis (S. pyogenes M1 [3]; RTX 30, 70, 100 μg/kg s.c., infection 4 weeks later): significantly less dermonecrosis
S. pyogenes in lesions, quantitative cultures (S. pyogenes M1 [3]; RTX-treated vs vehicle): log-fold reductions of S. pyogenes
body weight regain (S. pyogenes M1 [3]; RTX-treated vs vehicle): regained body weight faster
skin abscess size (S. pyogenes M1 [3]; RTX-treated vs vehicle): resolved faster
monocytes, other myeloid cells, CD11b-CD45+ leukocytes (FACS) (S. pyogenes M1 [3]; RTX-treated vs vehicle, 1 day): not detected
skin histopathology (S. pyogenes M1 [3]; RTX-treated, day 3): containment of the bacterial infection within a circumscribed abscess containing polymorphonuclear leukocytes
S. pyogenes cultured from spleens (S. pyogenes M1 [3]; RTX-treated, day 9): did not yield detectable bacteria
CGRP release in infected tissues (skin punch biopsies): lower CGRP release in infected tissues
heat hyperalgesia (S. pyogenes M1 [4]; RTX-treated): abrogated
mechanical hyperalgesia (S. pyogenes M1 [4]; RTX-treated): abrogated
spontaneous pain behaviors (S. pyogenes M1 [4]; RTX-treated): abrogated
mice succumbed to / died from infection (S. aureus USA300; RTX-treated mice given GR1 or control IgG): 0%
lung bacterial burdens / clearance (S. aureus USA300; RTX-treated vs vehicle, 12 h): significantly improved; also recorded: reduced lung bacterial burdens
core body temperature (S. aureus USA300; RTX-treated vs vehicle, lethal MRSA): improved maintenance of core-body temperature
survival (S. aureus USA300; RTX-treated vs vehicle, lethal MRSA intra-tracheal): significantly improved survival; also recorded: the majority of RTX-treated mice survived
BALF total protein, TNF-α, IL-6 and CXCL-1 induction (S. aureus USA300; RTX, 6 h): faster kinetics in the induction
CD11b+Ly6G+ lung neutrophil recruitment (S. aureus USA300; RTX, 6 h and 12 h post-infection): striking increase
gram-positive bacterial colonies in lung (Brown and Brenn) (S. aureus USA300; RTX, 12 h and 24 h): few bacterial colonies
lung cellular immune influx (H&E) (S. aureus USA300; RTX, 12 h and 24 h post-infection): increased cellular immune influx
BALF TNF-α, IL-6 and CXCL-1 levels (S. aureus USA300; RTX, 12 h post-infection): markedly reduced
CGRP levels in BALF (S. aureus USA300; RTX, 12 h post-infection): significantly reduced
bacterial load recovery, sub-lethal dose (S. aureus USA300; RTX, S. aureus 2-4×10^7 CFU): enhanced protection
neutrophil crawling distances (neutrophils): significantly increased crawling distances
neutrophil vascular crawling (neutrophils): a significant proportion of neutrophils demonstrated vascular crawling
neutrophils recruited to pulmonary capillaries (neutrophils; 4 h post-infection GFP-S. aureus): significantly more neutrophils

CGRP8-37 (VTHRLAGLLSRSGGVVKNNFVPTNVGSKAF; Calcitonin gene-related peptide 1; UniProt P06881 90-119, looked up, fragment)
direct effects on S. pyogenes growth or viability (S. pyogenes M1 [1]): did not have direct effects
neutrophil killing of S. pyogenes suppressed by DRG neurons (S. pyogenes M1 [2]): enhances neutrophil killing of bacteria; also recorded: prevented the suppressive effects
survival (S. aureus USA300; CGRP8-37 800 ng i.p. at -24, -2, 12, 24, 36, 48 h): improved survival
core body temperature maintenance (S. aureus USA300; CGRP8-37 800 ng i.p. before and after infection): improved
core body temperature (S. aureus USA300; CGRP8-37 7.5 μg i.p. after infection): significantly improved
survival (S. aureus USA300; CGRP8-37 7.5 μg i.p. at 4, 16, 24 h after infection): significantly improved survival
core-body temperature (S. aureus USA300; CGRP8-37 i.p. 12 hours prior and 12 hours after infection): maintenance of core-body temperature
survival (S. aureus USA300; CGRP8-37 i.p. 12 hours prior and 12 hours after infection, 10^7 CFU): significantly improved survival
